Converted amounts (≈) assume the structure as drawn. Like-named read-outs stand apart in the source and are kept apart here.
Legend:
Type in all cases: cell-based
[1] = tested on: Staphylococcus aureus ATCC25923; experiment: MIC broth microdilution, S. aureus ATCC25923; conditions: Staphylococcus aureus ATCC25923 (sensitive strain), CAMHB, 37° C., 18-20 hours, 90% growth inhibition
Method: (§1) Compound 7 was tested to evaluate its inhibitory effect on Staphylococcus aureus. An experiment was conducted to assess the minimum inhibitory concentration (MIC) of the compound of Formula (I).
(§2) 20.0 mg of test compound was weighed and dissolved in 0.5 mL of filtered DMSO (100%) to prepare a stock solution of 40 mg/mL concentration. Initial stock (Stock 1 and Stock 2) and working stock solution (10 concentrations) were prepared as mentioned in the table below. Final testing concentration in the micro-titer plates was starting from 1000 μg/mL in experiment plate.
(§3) The reference standards gentamicin, norfloxacin and levofloxacin were dissolved using sterile ultrapure water to prepare a stock solution of 2.0 mg/mL concentration. Working stock solution of 64 μg/mL was prepared in CAMHB by diluting 0.032 mL of 2.0 mg/mL stock solution in 0.968 mL of growth medium. The testing concentration in the micro-titer plates is 32 μg/mL.
(§4) Tester strains were sub-cultured on Soyabean Casein digest Agar (SCDA) and incubated at 37° C. for 18-20 hours in aerobic condition. After incubation, the isolated colonies were suspended in sterile saline to prepare the bacterial suspension. The bacterial suspension was adjusted to ˜1×10^8 CFU/mL.
(§5) ? titer plates (Flat bottom) were prepared as per the CLSI recommendations. The test compound and reference compounds dilution were performed in the micro titer plates. Two hundred microliters of respective growth medium were added to the wells of a 96-wellflat bottom plate well A1 to E1 for Broth control. One hundred microliters of respective growth medium were added to all the wells B3 to B11, C3 to C11, D3 to D11, E3 to E11 except B2 to E2. One hundred microliters of prepared test compound 7 working stock solution (10 concentrations) were added from A2 to A11. Two hundred microliters of reference Standard were added to B2, C2 and D2. Two hundred microliters of DMSO were to E2 as negative control. One hundred microliter was transferred from B2, C2, D2 and E2 wells B3, C3, D3 and E3 wells respectively and serially diluted up to B11, C11, D11 and E11 wells. One hundred microliter after serial dilution was discarded from Bit, C11, D11 and E11 wells, wells A12 to F12 serve as culture control.
(§6) The adjusted bacterial suspension was further diluted in CAMHB (Section 6.5), 100 μl of diluted culture was added to micro titer plate where the final concentration was 5×10^5 CFU/mL. Plates were incubated at 37° C. for 18-20 hours at aerobic conditions.
(§7) After incubation, visual readings were recorded, and the optical density was measured at 600 nm in spectrophotometer. The concentration of compound at 90% growth was inhibited compared to growth control was considered as the MIC value.

[2] = tested on: Staphylococcus aureus ATCC700699; experiment: MIC broth microdilution, S. aureus ATCC700699; conditions: Staphylococcus aureus ATCC700699 (resistant to Methicillin and Oxacillin), CAMHB, 37° C., 18-20 hours, 90% growth inhibition
Method: as §1, §2, §3, §4, §5, §6, §7

[3] = tested on: Staphylococcus aureus ATCC29213; experiment: MIC broth microdilution, S. aureus ATCC29213; conditions: Staphylococcus aureus ATCC29213 (sensitive strain), CAMHB, 37° C., 18-20 hours, 90% growth inhibition
Method: as §1, §2, §3, §4, §5, §6, §7

[4] = tested on: Staphylococcus aureus (Gentamicin resistant) ATCC43300; experiment: MIC broth microdilution, S. aureus ATCC43300; conditions: Staphylococcus aureus ATCC43300 (resistant to Methicillin, Oxacillin, Gentamicin and Azithromycin), CAMHB, 37° C., 18-20 hours, 90% growth inhibition
Method: as §1, §2, §3, §4, §5, §6, §7

[5] = tested on: Escherichia coli ATCC9637; experiment: MIC broth microdilution, E. coli ATCC9637; conditions: CAMHB, 37° C., 18-20 hours, 90% growth inhibition
Method: [The source words this procedure for another organism and reports this organism under the same test.] as §1, §2, §3, §4, §5, §6, §7

[6] = tested on: Pseudomonas aeruginosa ATCC 9027; experiment: MIC broth microdilution, P. aeruginosa ATCC 9027; conditions: 37° C., 18-20 hours, 90% growth inhibition
Method: [The source words this procedure for another organism and reports this organism under the same test.] as §1, §2, §3, §4, §5, §6, §7

[7] = tested on: Klebsiella pneumoniae ATCC 700603; experiment: MIC broth microdilution, K. pneumoniae ATCC 700603; conditions: 37° C., 18-20 hours, 90% growth inhibition
Method: [The source words this procedure for another organism and reports this organism under the same test.] as §1, §2, §3, §4, §5, §6, §7

[8] = tested on: Gram-positive Staphylococcus aureus strains, including MRSA and GR-MRSA; experiment: MIC, summary over S. aureus strains; conditions: various Staphylococcus aureus strains, including MRSA and GR-MRSA (text summary of Table 1)
Method: as §1, §2, §3
as §4, with “CFU/mL. […]” for “CFU/mL.”
After incubation, visual readings were recorded, and the optical density was measured at 600 nm in spectrophotometer. […]

[9] = ATCC700603, CAMHB, read-out: MIC

| Molecule | MIC ([1]; read-out: MIC) | MIC ([2]; read-out: MIC) | MIC ([3]; read-out: MIC) | MIC ([4]; read-out: MIC) | MIC ([5]; read-out: MIC) | MIC ([6]; ATCC9027, CAMHB, read-out: MIC) | MIC [7, 9] | MIC [8] | MIC [1] | MIC [2] | MIC [3] | MIC [4] | MIC [5] | MIC ([6]; CAMHB) | MIC ([7]; CAMHB) |
| --- | --- | --- | --- | --- | --- | --- | --- | --- | --- | --- | --- | --- | --- | --- | --- |
| CCCc1nn(C)c2c(-c3c[nH]c4ccc(Cl)cc34)nc(-c3ccc(Cl)cc3)nc12 [Compound 7, 7-(5-chloro-1H-indol-3-yl)-5-(4-chlorophenyl)-1-methyl-3-propyl-1H-pyrazolo[4,3-d]pyrimidine] | 1 µg/mL (≈ 2.29 µM) | 1 µg/mL (≈ 2.29 µM) | 1 µg/mL (≈ 2.29 µM) | 1 µg/mL (≈ 2.29 µM) | > 1000 µg/mL | > 1000 µg/mL | > 1000 µg/mL | 1 µg/mL (≈ 2.29 µM) |  |  |  |  |  |  |  |
| C[C@H]1COc2c(N3CCN(C)CC3)c(F)cc3c(=O)c(C(=O)O)cn1c23 [Levofloxacin, levofloxacin] | 0.13 µg/mL (≈ 0.36 µM) | 16 µg/mL (≈ 44.3 µM) | 0.13 µg/mL (≈ 0.36 µM) | 0.13 µg/mL (≈ 0.36 µM) | ≤ 0.06 µg/mL | 0.5 µg/mL (≈ 1.38 µM) | 0.5 µg/mL (≈ 1.38 µM) |  |  |  |  |  |  |  |  |
| gentamicin |  |  |  |  |  |  |  |  | 0.25 µg/mL | >32.00 µg/mL | 0.50 µg/mL | >32.00 µg/mL | 1.00 µg/mL | 2.00 µg/mL | 16.00 µg/mL |
| CCn1cc(C(=O)O)c(=O)c2cc(F)c(N3CCNCC3)cc21 [Norfloxacin, norfloxacin] | 2 µg/mL (≈ 6.26 µM) | > 32 µg/mL | 1 µg/mL (≈ 3.13 µM) | 1 µg/mL (≈ 3.13 µM) | ≤ 0.06 µg/mL | 0.5 µg/mL (≈ 1.57 µM) | 4 µg/mL (≈ 12.5 µM) |  |  |  |  |  |  |  |  |
